Laboratory results reported in patent publication US7094770B2, “3′-or 2′-hydroxymethyl substituted nucleoside derivatives for treatment of hepatitis virus infections” (Pharmasset, Ltd., priority 2000, dated 2006).
Where two headings read alike, the source gives them in different places.

Experiments:
HIV = settings: literature; cited from earlier work
HBV [1] = settings: background statement; cited from earlier work
[2] = Cytotoxicity in PBM cells; assay type: cell-based, human; settings: human
Protocol: (§1) We also perform toxicity assays by measuring the inhibition of uptake of […] dye by treated cells. These assays are done in 96 well plates. After the standard 10 day treatment regimen medium is removed and PBS containing MTS dye added to each well. After a 2 hour incubation the absorbance of the metabolized product is measured at 490 nm.
(§2) Human PBM cells from healthy donors, seronegative for HIV-1 and HBV, are isolated by a single-step Ficoll-Hypaque discontinuous gradient centrifugation and propagated as described previously (Schinazi et al., Antimicrobial Agents Chemother., 1990, 34:1061; 1992, 36:2423; 1993, 37:875). Compounds are screened for activity against HIV-1 and cytotoxicity by a protocol reported previously reported by Schinazi, et al. The prototype strain of HIV-1LAI obtained from the Centers for Disease Control and Prevention, Atlanta, Ga., is used as the standard virus for the studies in human PBM cells.

HIV-1 = assay: Anti-HIV evaluation in human PBM cells; assay type: cell-based; settings: for EC50: HIV-1
From the text: as §2

HBV [3] = assay: Cell culture assay for anti-HBV activity (2.2.15 cells, HBV DNA in medium by Southern blot); assay type: cell-based, Hepatitis B virus; settings: for Antiviral activity (in words): virus not named
From the text: We follow the protocol described by Korba and Gerin(Antiviral Res., 1992, 19:55) and Pai et al. (Antimicrobial Agents Chemother., 1996, 40:380) which is used widely in the field. The HepG 2 2.2.15 cells contain a stably integrated HBV genome, the transcript from which serves as a template for viral replication. The cells produce virions which are elaborated into the medium. The production of the virion DNA is monitored by analysis of medium by Southern blotting. Drugs which inhibit viral replication reduce the levels of virion DNA in the medium, relative to controls.
Confluent cells in 24 well tissue culture dishes are treated with test compounds starting at 1 nM and extending logarithmically to 10 μM (1 nM, 3.2, 10 nM, 32, 100 nM, 1 μM, 10 μM […]). Medium is changed […] every 3 days and DNA extracted from the 3, 6, and […] day samples. The virions are concentrated by polyethylene glycol precipitation (equal volume addition of PEG 8000). After cooling on ice the samples are spun and the pellets treated with SDS and Proteinase K followed by Phenol:Chloroform extraction and ethanol precipitation of the DNA. The DNA is analyzed for HBV sequences by Southern hybridization. The probe used for the analysis is a ^32P labeled Eco RI fragment from the HBV clone described by Korba et al. 3TC is used as a positive control compound with known activity against HBV.
System: The most widely used system for the study of anti-HBV agents is the hepatoma cell culture system with the HBV genome. These cells are designated as the 2.2.15 cells, AD38 cells and AD79 cells. The 2.2.15 cells were generated by the transfection of the human hepatoma cells—HepG2 with HBV DNA. (Sells, et al., Proc. Natl. Acad. Sci. USA 84:1005–1009, 1987) HBV viral replication takes place in these cells. The HBV replication can be monitored intracellularly as well as extracellularly in these cells.
Assay for Anti-HBV agents: 2.215 cells are grown in multi-well dishes in RPMI medium supplemented with 4% fetal bovine serum. After 3 to 4 days of growing the cells, they are treated with varying concentrations of the test compound(s). The test compounds are dissolved in DMSO or sterile water. Cultures without the addition of the test compounds serve as controls. The addition of the test compound(s) is repeated at 3-day intervals. The medium is changed and replaced with appropriate concentration of the test compound. At the end of the 9-day treatment period, the culture medium is harvested and processed for viral DNA. The viral DNA thus obtained is analyzed by Southern blot analysis. After the Southern transfer, the blot is subjected to hybridization to an HBV specific probe to detect HBV DNA. The hybriodization is carried out overnight. After the hybridization, free probe is removed by washing of the blots. The specific hybridization is visualized by autoradiography. Inhibition produced by the test compound is calculated with reference to the levels of HBV DNA in the control samples.

[4] = Cytotoxicity in Vero cells; assay type: cell-based; settings: African green monkey
Protocol: as §1

[5] = Cytotoxicity in HepG2 cells; assay type: cell-based; settings: human
Protocol: as §1

[6] = Cytotoxicity in CEM cells; assay type: cell-based; settings: human
Protocol: as §1

[7] = target: reverse transcriptase of human immunodeficiency virus (Human immunodeficiency virus type 1 group M subtype B, UniProt P03366); settings: tested as the 5′-triphosphate; cited from earlier work
PBM cells = assay: Cytotoxicity in PBM cells; assay type: cell-based, human
Protocol: as §1, §2

Vero cells = assay: Cytotoxicity in Vero cells; assay type: cell-based
Protocol: as §1

[8] = test system: Varicella zoster virus (VZV); settings: literature; cited from earlier work
HSV-2 = settings: literature; cited from earlier work
Epstein Barr virus (EBV) = settings: literature; cited from earlier work
HSV-1 = settings: literature; cited from earlier work
[9] = test system: human cytomegalovirus (HCMV); settings: literature; cited from earlier work
[10] = test system: murine leukemia virus (MuLV); settings: literature; cited from earlier work
HSV = settings: literature; cited from earlier work
[11] = Human immunodeficiency virus 1, PBMC
[12] = Hepatitis B virus, read-out: Anti-HBV EC50

SMILES: Nc1nc(=O)n([C@@H]2O[C@H](CO)[C@@H](O)[C@@H]2F)cc1I [Fiacitabine]
- Activity against HIV (in words) (HIV): devoid of activity
- Activity against HBV (in words) (HBV [1]): effectively inhibit replication

SMILES: Nc1ncnc2c1ncn2C1OC(CO)C(CO)C1F (stereo not drawn) [Compound 23 (Series 2)]
- IC50 [2]: > 100 µM
- EC50 (HIV-1; [11]): 95.4 µM
- EC50 (HBV [3]; [12]): 1.04 µM
- IC50 at 10 day [4]: > 100 µM
- IC50 at 10 day [5]: > 100 µM
- IC50 at 10 day [6]: > 100 µM

SMILES: CO[C@H]1C[C@H](n2cc(C)c(=O)[nH]c2=O)O[C@@H]1CO [3′-O-methylthymidine]
- Activity against HIV (in words) (HIV): inactive
- Inhibition of HIV reverse transcriptase (in words) [7]: exceptionally potent inhibitor

SMILES: Cc1cn(C2OC(CO)C(CO)C2F)c(=O)[nH]c1=O (stereo not drawn) [Compound 12 (Series 2)]
- IC50 (PBM cells): > 100 µM
- EC50 (HIV-1): > 100 µM
- EC50 (HBV [3]; read-out: Anti-HBV EC50): < 10 µM
- Antiviral activity (in words) (HBV [3]): moderate activities
- IC50 at 10 day [4]: > 100 µM
- IC50 at 10 day [6]: > 100 µM

SMILES: CN(O)C1C(CO)OC(n2ccc(N)nc2=O)C1F (stereo not drawn) [Compound 59 (Series 2)]
- IC50 [2]: > 100 µM
- Inhibition of HIV replication (in words) (HIV-1): potent inhibitors
- EC50 (HIV-1; [11]): 0.49 µM
- Inhibition of HBV replication (in words) (HBV [3]): potent inhibitors
- EC50 (HBV [3]; [12]): ≤ 10 µM
- IC50 at 10 day [4]: > 100 µM
- IC50 at 10 day [5]: > 100 µM
- IC50 at 10 day [6]: 65.3 µM

SMILES: Nc1ccn(C2OC(CO)C(CO)C2F)c(=O)n1 (stereo not drawn) [Compound 7 (Series 2)]
- IC50 [2]: 48.8 µM
- Inhibition of HIV replication (in words) (HIV-1): potent inhibitors
- EC50 (HIV-1; [11]): 2.6 µM
- Inhibition of HBV replication (in words) (HBV [3]): potent inhibitors
- EC50 (HBV [3]; [12]): 0.04 µM
- IC50 at 10 day [4]: 56 µM
- IC50 at 10 day [5]: > 100 µM
- IC50 at 10 day [6]: 5.1 µM

SMILES: Cc1cn(C2CC(CO)C(CO)O2)c(=O)[nH]c1=O (stereo not drawn) [Compound 4 (Series 1)]
- IC50 (PBM cells): > 100 µM
- EC50 (HIV-1): 87.7 µM
- EC50 (HBV [3]; read-out: Anti-HBV EC50): > 10 µM
- IC50 (Vero cells): > 100 µM

SMILES: CN(O)C1C(CO)OC(n2cc(F)c(=O)[nH]c2=O)C1F (stereo not drawn) [Compound 61 (Series 2)]
- IC50 (PBM cells): > 100 µM
- EC50 (HIV-1): 52.3 µM
- EC50 (HBV [3]; read-out: Anti-HBV EC50): > 10 µM
- IC50 (Vero cells): > 100 µM

SMILES: O=c1[nH]c(=O)n([C@@H]2O[C@H](CO)[C@@H](O)[C@@H]2F)cc1I [Fialuridine]
- Activity against HIV (in words) (HIV): devoid of activity
- Activity against HBV (in words) (HBV [1]): effectively inhibit replication

SMILES: Cc1cn([C@H]2C[C@H](CO)[C@@H](CO)O2)c(=O)[nH]c1=O [3′-deoxy-3′-hydroxymethylthymidine]
- Activity against VZV (in words) [8]: devoid of activity
- Activity against HSV-2 (in words) (HSV-2): devoid of activity
- Activity against EBV (in words) (Epstein Barr virus (EBV)): devoid of activity
- Activity against HBV (in words) (HBV [3]; "we discovered"): potent agent
- Activity against HSV-1 (in words) (HSV-1): devoid of activity
- Activity against HIV (in words) (HIV): devoid of activity
- Activity against HCMV (in words) [9]: devoid of activity
- Activity against MuLV (in words) [10]: devoid of activity

SMILES: O=c1[nH]c(=O)n(C2O[C@H](CO)[C@@H](CO)[C@@H]2O)cc1C=CBr (stereo partly drawn) [5-bromovinyl-1-(3-deoxy-3-hydroxymethyl-D-arabinofuranosyl)-uracil]
- Activity against HSV (in words) (HSV): active

SMILES: Nc1nc(=O)n(C2OC(CO)C(CO)C2F)cc1F (stereo not drawn) [Compound 10 (Series 2)]
- IC50 [2]: > 100 µM
- Inhibition of HIV replication (in words) (HIV-1): potent inhibitors
- EC50 (HIV-1; [11]): 3.3 µM
- Inhibition of HBV replication (in words) (HBV [3]): potent inhibitors
- EC50 (HBV [3]; [12]): 0.13 µM
- IC50 at 10 day [4]: > 100 µM
- IC50 at 10 day [5]: > 100 µM
- IC50 at 10 day [6]: > 100 µM

SMILES: Nc1ccn([C@H]2C[C@H](CO)[C@@H](CO)O2)c(=O)n1 [2′,3′-dideoxy-3′-hydroxymethyl-cytidine]
- Activity against HSV (in words) (HSV): active
- Activity against HIV (in words) (HIV): good activity

SMILES: CCOP(=O)(CCC1=NOC(n2cc(C)c(=O)[nH]c2=O)C1)OCC (stereo not drawn) [Compound 33 (Series 2)]
- IC50 [2]: > 100 µM
- EC50 (HIV-1; [11]): > 100 µM
- EC50 (HBV [3]; Hepatitis B virus, read-out: Anti-HBV EC50 (μM)): > 10 µM
- IC50 at 10 day [4]: > 100 µM
- IC50 at 10 day [6]: > 100 µM

SMILES: Cc1cn(C2CC(CO)N(C)O2)c(=O)[nH]c1=O (stereo not drawn) [Compound 40 (Series 2)]
- IC50 (PBM cells): > 100 µM
- EC50 (HIV-1): > 100 µM
- EC50 (HBV [3]; read-out: Anti-HBV EC50): > 10 µM
- IC50 (Vero cells): > 100 µM

SMILES: CN(O)C1C(CO)OC(n2ccc(N)nc2=O)[C@H]1F (stereo partly drawn) [Compound 58 (Series 2)]
- IC50 [2]: 7.4 µM
- Inhibition of HIV replication (in words) (HIV-1): potent inhibitors
- EC50 (HIV-1; [11]): 0.09 µM
- Inhibition of HBV replication (in words) (HBV [3]): potent inhibitors
- EC50 (HBV [3]; [12]): 0.65 µM
- IC50 at 10 day [4]: ~106 µM
- IC50 at 10 day [5]: > 100 µM
- IC50 at 10 day [6]: 40.2 µM

SMILES: Cc1cn([C@H]2C[C@H](N=[N+]=[N-])[C@@H](CO)O2)c(=O)[nH]c1=O [Zidovudine]
- Activity against HBV (in words) (HBV [1]): inactive
- Inhibition of HIV reverse transcriptase (in words) [7]: potent inhibitor

SMILES: Cc1cn(C2OC(CO)C(N(C)O)[C@@H]2F)c(=O)[nH]c1=O (stereo partly drawn) [Compound 55 (Series 2)]
- IC50 [2]: > 100 µM
- EC50 (HIV-1; [11]): 68 µM
- EC50 (HBV [3]; [12]): > 10 µM
- IC50 at 10 day [4]: > 100 µM
- IC50 at 10 day [6]: > 100 µM

SMILES: Cc1cn(C2OC(CO)C(CO)C2F)c(=O)nc1N (stereo not drawn) [Compound 11 (Series 2)]
- IC50 (PBM cells): > 100 µM
- EC50 (HIV-1): 112 µM
- EC50 (HBV [3]; read-out: Anti-HBV EC50): < 10 µM
- Antiviral activity (in words) (HBV [3]): moderate activities
- IC50 (Vero cells): > 100 µM
- IC50 at 10 day [6]: > 100 µM

SMILES: Cc1cn(C2CC(CO)N(C)O2)c(=O)[nH]c1=O (stereo not drawn) [Compound 6 (Series 2)]
- IC50 [2]: > 100 µM
- EC50 (HIV-1; [11]): > 100 µM
- EC50 (HBV [3]; [12]): > 10 µM
- IC50 at 10 day [4]: > 100 µM
- IC50 at 10 day [6]: > 100 µM

SMILES: CC1C(CO)OC(n2cc(F)c(N)nc2=O)C1F (stereo not drawn) [Compound 21 (Series 2)]
- IC50 [2]: > 100 µM
- EC50 (HIV-1; [11]): > 100 µM
- EC50 (HBV [3]; [12]): > 10 µM
- IC50 at 10 day [4]: > 100 µM
- IC50 at 10 day [6]: > 100 µM

SMILES: Nc1ncnc2c1ncn2[C@H]1C[C@H](CO)[C@@H](CO)O1 [2′,3′-dideoxy-3′-hydroxymethyl-adenosine]
- Activity against HIV (in words) (HIV): good activity
